Reference: paper PMC3257078, “Predicting Antitumor Activity of Peptides by Consensus of Regression Models Trained on a Small Data Sample” (International Journal of Molecular Sciences, 2011)
Like-named read-outs stand apart in the source and are kept apart here.

Legend:
SW 620 (colon carcinoma) [1] = conditions: c = 10^-4 M, cited from earlier work
Excerpt: Table 3 Growth inhibition effects of OGF-related peptides. | column: PG(%) ^a / SW620

MCF-7 (breast carcinoma) [2] = conditions: c = 10^-4 M, cited from earlier work
Excerpt: Table 3 Growth inhibition effects of OGF-related peptides. | column: PG(%) ^a / MCF-7

[3] = system: HeLa (cervical carcinoma); conditions: c = 10^-4 M, cited from earlier work
Excerpt: Table 3 Growth inhibition effects of OGF-related peptides. | column: PG(%) ^a / HeLa

SW 620 (colon carcinoma) [4] = test: Proliferation assay (MTT), SW 620 cells; type: cell-based; conditions: c = 10^-4 M, 72 h incubation, absorbance 570 nm, quadruplicate in three individual experiments
Excerpt: (§1) Peptides 10, 12–14 as well as trisulfoxide derivative 15 were screened for possible antiproliferative effects on three cell lines: SW 620 (colon carcinoma), MCF-7 (breast carcinoma) and HeLa (cervical carcinoma), according to the previously published procedure. Table 3 summarizes activities found for tested peptides, expressed as percentage of growth (PG) of three cell lines, together with values for OGF and three OGF-related peptides proposed by the SVM radial basis function kernel (RBF). […] Therefore, the approach presented here managed to select peptides with improved biological activities from virtual library.
(§2) The biological potential of prepared compounds has been tested in the Laboratory for experimental therapy (Ruđer Bošković Institute) following the previously published procedure. Briefly, MCF-7, SW 620 and HeLa cells were cultured as monolayers and maintained in Dulbecco’s modified Eagle medium (DMEM), supplemented with 10% fetal bovine serum (FBS), 2mM L-glutamine, 100 U/mL penicillin and 100 μg/mL streptomycin in a humidified atmosphere with 5% CO2 at 37 °C. The panel cell lines were inoculated onto a series of standard 96-well microtiter plates on day 0, at 1 × 10^4 to 3 × 10^4 cells/mL, depending on the doubling times of specific cell line. Test agents were then added in five, 10-fold dilutions (10^−8 to 10^−4 M) and incubated for a further 72 hours. Working dilutions were freshly prepared on the day of testing. The solvent was also tested for eventual inhibitory activity by adjusting its concentration to be the same as in working concentrations. After 72 hours of incubation the cell growth rate was evaluated by performing the MTT assay. For this purpose the substance treated medium was discarded and MTT was added to each well at a concentration of 20 μg/40 μL. After four hours of incubation the precipitates were dissolved in 160 μL of dimethylsulphoxide (DMSO). The absorbance that is directly proportional to the number of living, metabolically active cells was measured on a microplate reader at 570 nm. Each test point was performed in quadruplicate in three individual experiments.

MCF-7 (breast carcinoma) [5] = test: Proliferation assay (MTT), MCF-7 cells; type: cell-based; conditions: c = 10^-4 M, 72 h incubation, absorbance 570 nm, quadruplicate in three individual experiments
Excerpt: as §1, §2

[6] = system: HeLa (cervical carcinoma); test: Proliferation assay (MTT), HeLa cells; type: cell-based; conditions: c = 10^-4 M, 72 h incubation, absorbance 570 nm, quadruplicate in three individual experiments
Excerpt: as §1, §2

[7] = Oxidation of Met residues to sulfoxide during acid Boc deprotection; type: physicochemical; conditions: cold TFA-H2O (9:1), ice bath, 5 min, full scan MS: only traces of 11 (m/z 750), oxidized forms m/z 766, 782, 798
Method: Synthesis of methionine rich peptides 10–14 was based on the 2 + 2 and 2 + 3 coupling between Boc-protected dipeptides 1–4 and H-Met-Met-OH or H-Met-Met-Met-OH (Scheme 1). Different methods of peptide bond formation were tested; finally peptides 5–7 were obtained by the DCC/HOSu method, activation with HATU yielded Ada-containing pentapeptide 8, while pentapeptide 9 was obtained by the mixed anhydride method (details in the Experimental section). Finally, deprotection of the Boc group was performed by acid hydrolysis and extra precautions were taken due to the known susceptibility of methionine residue toward acid-promoted oxidation to sulfoxide. Therefore, deprotection step was performed in ice bath, crude product was immediately purified by the HPLC and residual acid removed by passing through the short C18 column. […] During the purification procedure, only oxidized product 15 was isolated. All prepared compounds were characterized by NMR spectroscopy and deprotected compounds 10 and 12–15 additionally by tandem mass spectrometry and HRMS. The main feature of MS/MS spectra of the molecular [M + H]^+ ions of all peptides is high abundance of Y” and B-type fragment ions (Figure S1, Supplementary Information).
Boc-protected peptides 5–9 were treated with cold TFA-H2O (9:1) mixture in ice bath for 5 min. […]

Substance	PG(%) SW620 (percentage of growth) (SW 620 (colon carcinoma) [4])	PG(%) MCF-7 (percentage of growth) (MCF-7 (breast carcinoma) [5])	PG(%) HeLa (percentage of growth) [6]	PG(%) SW620 (percentage of growth) (SW 620 (colon carcinoma) [1]; training set peptides)	PG(%) MCF-7 (percentage of growth) (MCF-7 (breast carcinoma) [2]; training set peptides)	PG(%) HeLa (percentage of growth) ([3]; training set peptides)	also measured
H-Phe-Ada-Gly-Phe-Met-OH							PG(%) SW620 (percentage of growth) (SW 620 (colon carcinoma) [1]): 35%; PG(%) MCF-7 (percentage of growth) (MCF-7 (breast carcinoma) [2]): 39%; PG(%) HeLa (percentage of growth) [3]: 49%
H-Phe-Ada-Gly-Phe-Phe-OH							PG(%) SW620 (percentage of growth) (SW 620 (colon carcinoma) [1]): 39%; PG(%) MCF-7 (percentage of growth) (MCF-7 (breast carcinoma) [2]): 41%; PG(%) HeLa (percentage of growth) [3]: 23%
H-Phe-Ada-Met(O)-Met(O)-Met(O)-OH [Compound 15]	77%	82%	64%				
H-Phe-Ada-Met-Met-Met-OH [Compound 11, Ada-containing pentapeptide, only traces seen; oxidized to 15 during deprotection]							Susceptibility of Met residues to oxidation (sulfoxide formation) [7]: extreme susceptibility to oxidation
H-Phe-Ala-Met-Met-Met-OH [Compound 10]	100%	74%	88%				
H-Phe-Ala-Met-Met-OH [Compound 13]	86%	68%	71%				
H-Phe-Gly-Met-Met-Met-OH [Compound 12]	95%	86%	86%				
H-Tyr-(R)-Ada-Gly-OH				87%	100%	89%	
H-Tyr-(R)-Ada-OH				88%	99%	97%	
H-Tyr-(S)-Ada-Gly-OH				85%	100%	90%	
H-Tyr-(S)-Ada-OH				72%	100%	92%	
H-Tyr-Ada-Gly-Phe-Met-OH				85%	100%	85%	
H-Tyr-Ada-Gly-Phe-Phe-OH							PG(%) SW620 (percentage of growth) (SW 620 (colon carcinoma) [1]): 38%; PG(%) MCF-7 (percentage of growth) (MCF-7 (breast carcinoma) [2]): 81%; PG(%) HeLa (percentage of growth) [3]: 71%
H-Tyr-Ala-Met-Met-Met-OH [Compound 14]	97%	71%	91%				
H-Tyr-Gly-Gly-Phe-Met-OH [OGF, native opioid growth factor (OGF), Met-enkephalin]	85%	92%	88%				
